Literature values, collected in patent US20040247626A1, “Stable aqueous dispersion of 1, 2-benzisothiazoline-3-one (bit)” (priority 2004, published 2004).

solubility in water: sparingly soluble
Structure (SMILES): O=c1[nH]sc2ccccc12 [BIT, 1,2-benzisothiazolin-3-one]
